Measurements published in the supplement of paper PMC10883282.

Experiments:
Experiment in all cases: relative viability vs DMSO control (72 h) (fraction); higher = more viable cells
G401 = tested on: G401
In short: (§1)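 Plates held 72 h at 37 °C and 5% CO2 contained sarcoma cell lines seeded in 384-well format to reach 80–90% confluence, plus 2.5 µl of serially diluted compound added after 24 h. Source plate concentrations ran from 10 mM to 0.0002 mM, with 0.1% DMSO as vehicle and a 5 µM positive control. Percent growth from ATPLite readings, averaged over up to triplicate wells, gave relative viability. Values were rescaled with 1 as full and 0 as none.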

SK-ES-1 = tested on: SK-ES-1
In short: as §1

SW1353 = tested on: SW1353
In short: as §1

RD-ES = tested on: RD-ES
In short: as §1

SW872 = tested on: SW872
In short: as §1

RD = tested on: RD
In short: as §1

SK-LMS-1 = tested on: SK-LMS-1
In short: as §1

VA-ES-BJ = tested on: VA-ES-BJ
In short: as §1

SW684 = tested on: SW684
In short: as §1

MES-SA = tested on: MES-SA
In short: as §1

KHOS-NP = tested on: KHOS-NP
In short: as §1

HT1080 = tested on: HT1080
In short: as §1

Cc1cccc(-c2nn3c(c2-c2ccnc4ccc(C(N)=O)cc24)CCC3)n1 [Galunisertib]
Conditions	relative viability
G401, 0.00017 µM	0.977
G401, 0.00051 µM	0.93
G401, 0.00152 µM	1.01
G401, 0.00457 µM	0.959
G401, 0.01372 µM	0.974
G401, 0.04115 µM	0.964
G401, 0.1235 µM	0.984
G401, 0.3704 µM	0.971
G401, 1.111 µM	0.965
G401, 3.333 µM	0.9721
G401, 10 µM	0.979
HT1080, 0.00017 µM	1.06
HT1080, 0.00051 µM	1.04
HT1080, 0.00152 µM	0.959
HT1080, 0.00457 µM	1.04
HT1080, 0.01372 µM	1.04
HT1080, 0.04115 µM	1.01
HT1080, 0.1235 µM	1.01
HT1080, 0.3704 µM	1.04
HT1080, 1.111 µM	1.04
HT1080, 3.333 µM	1.03
HT1080, 10 µM	1.02
KHOS-NP, 0.00017 µM	1.088
KHOS-NP, 0.00051 µM	1.09
KHOS-NP, 0.00152 µM	1.066
KHOS-NP, 0.00457 µM	1.06
KHOS-NP, 0.01372 µM	1.06
KHOS-NP, 0.04115 µM	1.07
KHOS-NP, 0.1235 µM	1.03
KHOS-NP, 0.3704 µM	1.04
KHOS-NP, 1.111 µM	0.999
KHOS-NP, 3.333 µM	0.978
KHOS-NP, 10 µM	0.976
MES-SA, 0.00017 µM	0.925
MES-SA, 0.00051 µM	0.922
MES-SA, 0.00152 µM	0.916
MES-SA, 0.00457 µM	0.897
MES-SA, 0.01372 µM	0.911
MES-SA, 0.04115 µM	0.91
MES-SA, 0.1235 µM	0.9002
MES-SA, 0.3704 µM	0.891
MES-SA, 1.111 µM	0.888
MES-SA, 3.333 µM	0.863
MES-SA, 10 µM	0.873
RD, 0.00017 µM	1.06
RD, 0.00051 µM	1.07
RD, 0.00152 µM	1.079
RD, 0.00457 µM	1.095
RD, 0.01372 µM	1.081
RD, 0.04115 µM	1.09
RD, 0.1235 µM	1.071
RD, 0.3704 µM	1.05
RD, 1.111 µM	1.08
RD, 3.333 µM	1.12
RD, 10 µM	1.13
RD-ES, 0.00017 µM	0.932
RD-ES, 0.00051 µM	0.975
RD-ES, 0.00152 µM	0.979
RD-ES, 0.00457 µM	0.965
RD-ES, 0.01372 µM	0.979
RD-ES, 0.04115 µM	0.9533
RD-ES, 0.1235 µM	0.92
RD-ES, 0.3704 µM	0.915
RD-ES, 1.111 µM	0.913
RD-ES, 3.333 µM	0.886
RD-ES, 10 µM	0.894
SK-ES-1, 0.00017 µM	1.02
SK-ES-1, 0.00051 µM	1.03
SK-ES-1, 0.00152 µM	0.998
SK-ES-1, 0.00457 µM	0.978
SK-ES-1, 0.01372 µM	1.06
SK-ES-1, 0.04115 µM	1.02
SK-ES-1, 0.1235 µM	0.946
SK-ES-1, 0.3704 µM	0.996
SK-ES-1, 1.111 µM	0.974
SK-ES-1, 3.333 µM	0.96
SK-ES-1, 10 µM	0.959
SK-LMS-1, 0.00017 µM	1.04
SK-LMS-1, 0.00051 µM	1
SK-LMS-1, 0.00152 µM	1.01
SK-LMS-1, 0.00457 µM	0.982
SK-LMS-1, 0.01372 µM	1.01
SK-LMS-1, 0.04115 µM	0.982
SK-LMS-1, 0.1235 µM	1.01
SK-LMS-1, 0.3704 µM	1
SK-LMS-1, 1.111 µM	1
SK-LMS-1, 3.333 µM	0.953
SK-LMS-1, 10 µM	0.965
SW684, 0.00017 µM	1.08
SW684, 0.00051 µM	1.09
SW684, 0.00152 µM	1.08
SW684, 0.00457 µM	1.13
SW684, 0.01372 µM	1.09
SW684, 0.04115 µM	1.11
SW684, 0.1235 µM	1.09
SW684, 0.3704 µM	1.08
SW684, 1.111 µM	1.05
SW684, 3.333 µM	1.08
SW684, 10 µM	1.09
SW872, 0.00017 µM	1.05
SW872, 0.00051 µM	1.05
SW872, 0.00152 µM	1
SW872, 0.00457 µM	1.02
SW872, 0.01372 µM	0.989
SW872, 0.04115 µM	0.991
SW872, 0.1235 µM	0.956
SW872, 0.3704 µM	0.96
SW872, 1.111 µM	1
SW872, 3.333 µM	1.01
SW872, 10 µM	1
SW1353, 0.00017 µM	1.01
SW1353, 0.00051 µM	0.967
SW1353, 0.00152 µM	0.991
SW1353, 0.00457 µM	0.954
SW1353, 0.01372 µM	0.962
SW1353, 0.04115 µM	0.926
SW1353, 0.1235 µM	0.9202
SW1353, 0.3704 µM	0.959
SW1353, 1.111 µM	0.967
SW1353, 3.333 µM	1
SW1353, 10 µM	0.976
VA-ES-BJ, 0.00017 µM	1.04
VA-ES-BJ, 0.00051 µM	1
VA-ES-BJ, 0.00152 µM	1.03
VA-ES-BJ, 0.00457 µM	0.9974
VA-ES-BJ, 0.01372 µM	0.983
VA-ES-BJ, 0.04115 µM	0.986
VA-ES-BJ, 0.1235 µM	1.01
VA-ES-BJ, 0.3704 µM	1.01
VA-ES-BJ, 1.111 µM	1.07
VA-ES-BJ, 3.333 µM	1.08
VA-ES-BJ, 10 µM	1.11

CN1CC[C@@H](NC(=O)Nc2ccc(C#N)cc2)C[C@@H]1c1nc2ccccc2[nH]1 [Glasdegib]
Conditions	relative viability
G401, 0.00017 µM	1.04
G401, 0.00051 µM	1.03
G401, 0.00152 µM	1.02
G401, 0.00457 µM	1.02
G401, 0.01372 µM	1.03
G401, 0.04115 µM	1.03
G401, 0.1235 µM	1.02
G401, 0.3704 µM	0.986
G401, 1.111 µM	0.997
G401, 3.333 µM	0.949
G401, 10 µM	0.934
HT1080, 0.00017 µM	1.07
HT1080, 0.00051 µM	1.091
HT1080, 0.00152 µM	1.112
HT1080, 0.00457 µM	1.09
HT1080, 0.01372 µM	1.09
HT1080, 0.04115 µM	1.112
HT1080, 0.1235 µM	1.1
HT1080, 0.3704 µM	1.087
HT1080, 1.111 µM	1.07
HT1080, 3.333 µM	1.054
HT1080, 10 µM	1.01
KHOS-NP, 0.00017 µM	1.09
KHOS-NP, 0.00051 µM	1.1
KHOS-NP, 0.00152 µM	1.1
KHOS-NP, 0.00457 µM	1.11
KHOS-NP, 0.01372 µM	0.779
KHOS-NP, 0.04115 µM	1.1
KHOS-NP, 0.1235 µM	1.108
KHOS-NP, 0.3704 µM	1.12
KHOS-NP, 1.111 µM	1.11
KHOS-NP, 3.333 µM	1.085
KHOS-NP, 10 µM	1.02
MES-SA, 0.00017 µM	0.945
MES-SA, 0.00051 µM	0.956
MES-SA, 0.00152 µM	0.976
MES-SA, 0.00457 µM	0.956
MES-SA, 0.01372 µM	0.952
MES-SA, 0.04115 µM	0.915
MES-SA, 0.1235 µM	0.938
MES-SA, 0.3704 µM	0.919
MES-SA, 1.111 µM	0.926
MES-SA, 3.333 µM	0.935
MES-SA, 10 µM	0.85
RD, 0.00017 µM	1.02
RD, 0.00051 µM	1.03
RD, 0.00152 µM	1.05
RD, 0.00457 µM	1.04
RD, 0.01372 µM	1.02
RD, 0.04115 µM	0.99
RD, 0.1235 µM	0.988
RD, 0.3704 µM	0.983
RD, 1.111 µM	1.02
RD, 3.333 µM	1
RD, 10 µM	1.06
RD-ES, 0.00017 µM	0.9823
RD-ES, 0.00051 µM	0.963
RD-ES, 0.00152 µM	0.9569
RD-ES, 0.00457 µM	0.968
RD-ES, 0.01372 µM	0.96
RD-ES, 0.04115 µM	0.923
RD-ES, 0.1235 µM	0.924
RD-ES, 0.3704 µM	0.926
RD-ES, 1.111 µM	0.924
RD-ES, 3.333 µM	0.934
RD-ES, 10 µM	0.891
SK-ES-1, 0.00017 µM	1
SK-ES-1, 0.00051 µM	1.03
SK-ES-1, 0.00152 µM	1
SK-ES-1, 0.00457 µM	1.02
SK-ES-1, 0.01372 µM	1.01
SK-ES-1, 0.04115 µM	0.965
SK-ES-1, 0.1235 µM	0.944
SK-ES-1, 0.3704 µM	0.975
SK-ES-1, 1.111 µM	0.944
SK-ES-1, 3.333 µM	0.77
SK-ES-1, 10 µM	0.696
SK-LMS-1, 0.00017 µM	1.08
SK-LMS-1, 0.00051 µM	1.09
SK-LMS-1, 0.00152 µM	1.111
SK-LMS-1, 0.00457 µM	1.07
SK-LMS-1, 0.01372 µM	1.14
SK-LMS-1, 0.04115 µM	1.11
SK-LMS-1, 0.1235 µM	1.09
SK-LMS-1, 0.3704 µM	1.06
SK-LMS-1, 1.111 µM	1.07
SK-LMS-1, 3.333 µM	1.02
SK-LMS-1, 10 µM	1.03
SW684, 0.00017 µM	1.165
SW684, 0.00051 µM	1.14
SW684, 0.00152 µM	1.19
SW684, 0.00457 µM	1.15
SW684, 0.01372 µM	1.16
SW684, 0.04115 µM	1.177
SW684, 0.1235 µM	1.12
SW684, 0.3704 µM	1.2
SW684, 1.111 µM	1.12
SW684, 3.333 µM	1.12
SW684, 10 µM	1.12
SW872, 0.00017 µM	1.08
SW872, 0.00051 µM	1.07
SW872, 0.00152 µM	1.08
SW872, 0.00457 µM	1.06
SW872, 0.01372 µM	1.06
SW872, 0.04115 µM	1.05
SW872, 0.1235 µM	1.06
SW872, 0.3704 µM	1.066
SW872, 1.111 µM	1.05
SW872, 3.333 µM	1.06
SW872, 10 µM	1.06
SW1353, 0.00017 µM	1.1
SW1353, 0.00051 µM	1.1
SW1353, 0.00152 µM	1.08
SW1353, 0.00457 µM	1.1
SW1353, 0.01372 µM	1.09
SW1353, 0.04115 µM	1.07
SW1353, 0.1235 µM	1.07
SW1353, 0.3704 µM	1.07
SW1353, 1.111 µM	1.1
SW1353, 3.333 µM	1.09
SW1353, 10 µM	1.04
VA-ES-BJ, 0.00017 µM	1.07
VA-ES-BJ, 0.00051 µM	1.07
VA-ES-BJ, 0.00152 µM	1.06
VA-ES-BJ, 0.00457 µM	1.068
VA-ES-BJ, 0.01372 µM	1.07
VA-ES-BJ, 0.04115 µM	1.06
VA-ES-BJ, 0.1235 µM	1.05
VA-ES-BJ, 0.3704 µM	1.04
VA-ES-BJ, 1.111 µM	1.01
VA-ES-BJ, 3.333 µM	1.08
VA-ES-BJ, 10 µM	1.06
